Measurements from US8987195B2 (priority 2012, dated 2015).
Like-named read-outs stand apart in the source and are kept apart here.

Assays:
[1] = target: HCV NS3/4A protease genotype 1b (Hepatitis C virus genotype 1b, UniProt P26663); test: HCV NS3/4A protease time-resolved fluorescence (TRF) assay, Ki against genotype 1b; type: biochemical
Procedure, shortened: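 Ki values come from IC50 fits corrected for substrate concentration and KM. The time-resolved fluorescence protease reaction used 25 nM peptide substrate, 2.5 h, room temperature, pH 7.5 HEPES buffer, after 30 min enzyme–inhibitor preincubation.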

HCV genotype 1b replicon = test: HCV replicon assay, genotype 1b replicon EC50; type: cell-based, Hepatitis C virus; details: read-out: EC50 [gt-1b]
Procedure, shortened: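 Readout was replicon RNA copy number, by 32P-probe protection or TaqMan normalized to cellular cyclophilin A RNA, or luciferase activity for luciferase:Neo^r fusion lines. Cells were exposed to serially diluted compound for 24-48 hours without G418, then washed and lysed. EC50 derived from four-parameter fit relative to DMSO.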

[2] = IC50 [gt-1b] (nM), NS3/4A genotype 1b, enzyme 0.2 nM
[3] = Hepatitis C virus, genotype 1b replicon
[4] = IC50 [gt-1b], NS3/4A protease TRF assay, genotype 1b enzyme 0.2 nM
[5] = Hepatitis C virus, HCV replicon, genotype 1b
[6] = IC50 [gt-1b] (nM), NS3/4A genotype 1b, enzyme 0.2 nM, HCOOH salt
[7] = Hepatitis C virus, genotype 1b replicon, HCOOH salt

Sequence of HCV NS3/4A protease genotype 1b (P26663 1027-1657): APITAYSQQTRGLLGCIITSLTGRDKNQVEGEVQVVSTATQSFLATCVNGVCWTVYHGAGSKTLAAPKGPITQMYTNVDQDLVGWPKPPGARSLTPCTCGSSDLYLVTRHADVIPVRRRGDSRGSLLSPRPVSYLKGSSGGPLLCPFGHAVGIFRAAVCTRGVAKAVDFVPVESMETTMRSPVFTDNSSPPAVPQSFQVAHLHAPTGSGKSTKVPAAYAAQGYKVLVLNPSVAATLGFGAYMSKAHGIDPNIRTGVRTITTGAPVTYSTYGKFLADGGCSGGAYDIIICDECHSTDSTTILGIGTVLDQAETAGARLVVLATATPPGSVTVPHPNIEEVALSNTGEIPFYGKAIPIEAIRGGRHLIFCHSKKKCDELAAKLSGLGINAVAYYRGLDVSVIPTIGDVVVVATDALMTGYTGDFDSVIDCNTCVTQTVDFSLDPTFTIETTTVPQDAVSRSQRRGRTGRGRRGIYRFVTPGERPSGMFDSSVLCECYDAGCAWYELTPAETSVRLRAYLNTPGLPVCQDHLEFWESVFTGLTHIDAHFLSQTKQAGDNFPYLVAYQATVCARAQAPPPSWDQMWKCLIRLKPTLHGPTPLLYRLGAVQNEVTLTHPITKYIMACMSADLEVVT
Sequence of HCV NS3/4A protease genotype 1b (P26663 1658-1711): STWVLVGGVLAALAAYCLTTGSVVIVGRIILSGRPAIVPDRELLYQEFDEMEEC

SMILES: Cc1nc2ccc(Cl)cc2c2c1O[C@]1(CC2)C[C@H]2C(=O)N[C@]3(C(=O)NS(=O)(=O)C4(C)CC4)C[C@H]3/C=C\CCCCC[C@H](NC(=O)OCC3(C)CC3)C(=O)N2C1 [Example 41]
- IC50 ([1]; IC50 [gt-1b] (nM), NS3/4A genotype 1b, enzyme 0.2 nM, K+ salt): 0.007 nM
- EC50 (HCV genotype 1b replicon; Hepatitis C virus, GETYPE1B|GT1B, genotype 1b replicon, K+ salt): 16200 pM

SMILES: Cc1nc2ccc(Cl)cc2c2c1O[C@]1(CC2)C[C@H]2C(=O)N[C@]3(C(=O)NS(=O)(=O)C4(C)CC4)C[C@H]3/C=C\CCCCC[C@H](NC(=O)OC(C)(C)C)C(=O)N2C1 [Example 39, tert-Butyl ((2R,6S,13aS,14aR,16aS,Z)-9′-chloro-5′-methyl-14a-(((1-methylcyclopropyl)sulfonyl)carbamoyl)-5,16-dioxo-1′,2′,3,5,6,7,8,9,10,11,13a,14,14a,15,16,16a-hexadecahydro-1H-spiro[cyclopropa[e]pyrrolo[1,2-a][1,4]diazacyclopentadecine-2,3′-pyrano[2,3-c]quuinolin]-6-yl)carbamate]
- IC50 [1, 2]: 0.004 nM
- EC50 (HCV genotype 1b replicon; [3]): 590 pM

SMILES: COc1ccc2nc(C(F)(F)F)c3c(c2c1)[C@@H](F)C[C@]1(C[C@H]2C(=O)N[C@]4(C(=O)NS(=O)(=O)C5(C)CC5)C[C@H]4/C=C\CCCCC[C@H](NC(=O)OC(C)(C)C)C(=O)N2C1)O3 [Example 426, tert-butyl [(l′S,2S,6S,12Z,13aS,14aR,16aS)-1′-fluoro-9′-methoxy-14a-{[(1-methylcyclopropyl)sulfonyl]carbamoyl}-5,16-dioxo-5′-(trifluoromethyl)-1,1′,2′,5,6,7,8,9,10,11,13a,14,14a,15,16,16a-hexadecahydrospiro[cyclopropa[e]pyrrolo[1,2-a][1,4]diazacyclopentadecine-2,3′-pyrano[2,3-c]quinolin]-6-yl]carbamate]
- IC50 [1, 4]: 0.603 nM
- EC50 (HCV genotype 1b replicon; [5]): 21400 pM

SMILES: Cc1nc2cc(F)c(F)cc2c2c1O[C@]1(CC2)C[C@H]2C(=O)N[C@]3(C(=O)NS(=O)(=O)C4(C)CC4)C[C@H]3/C=C\CCCCC[C@H](NC(=O)OCC3CCCC3)C(=O)N2C1 [Example 232, cyclopentylmethyl [(2R,6S,12Z,13aS,14aR,16aS)-8′,9′-difluoro-5′-methyl-14a-{[(1-methylcyclopropyl)sulfonyl]carbamoyl}-5,16-dioxo-1,1′,2′,5,6,7,8,9,10,11,13a,14,14a,15,16,16a-hexadecahydrospiro[cyclopropa[e]pyrrolo[1,2-a][1,4]diazacyclopentadecine-2,3′-pyrano[2,3-c]quinolin]-6-yl]carbamate]
- IC50 [1, 2]: 0.085 nM
- EC50 (HCV genotype 1b replicon; [3]): 12900 pM

SMILES: Cc1nc2ccc(F)cc2c2c1O[C@]1(CC2)C[C@H]2C(=O)N[C@]3(C(=O)NS(=O)(=O)C4(C)CC4)C[C@H]3/C=C\CCCCC[C@H](NC(=O)OCC(C)(C)C)C(=O)N2C1 [Example 406, 2,2-dimethylpropyl [(2R,6S,12Z,13aS,14aR,16aS)-9′-fluoro-5′-methyl-14a-{[(1-methylcyclopropyl)sulfonyl]carbamoyl}-5,16-dioxo-1,1′,2′,5,6,7,8,9,10,11,13a,14,14a,15,16,16a-hexadecahydrospiro[cyclopropa[e]pyrrolo[1,2-a][1,4]diazacyclopentadecine-2,3′-pyrano[2,3-c]quinolin]-6-yl]carbamate]
- IC50 [1, 4]: 0.013 nM
- EC50 (HCV genotype 1b replicon; [5]): 1000 pM

SMILES: Cc1nc2ccccc2c2c1O[C@]1(CC2)C[C@H]2C(=O)N[C@]3(C(=O)NS(=O)(=O)C4(C)CC4)C[C@H]3/C=C\CCCCC[C@H](NC(=O)OC3CCC(F)(F)CC3)C(=O)N2C1 [Example 196, 4,4-difluorocyclohexyl [(2R,6S,12Z,13aS,14aR,16aS)-5′-methyl-14a-{[(1-methylcyclopropyl)sulfonyl]carbamoyl}-5,16-dioxo-1,1′,2′,5,6,7,8,9,10,11,13a,14,14a,15,16,16a-hexadecahydrospiro[cyclopropa[e]pyrrolo[1,2-a][1,4]diazacyclopentadecine-2,3′-pyrano[2,3-c]quinolin]-6-yl]carbamate]
- IC50 [1, 2]: 0.003 nM
- EC50 (HCV genotype 1b replicon; [3]): 5520 pM

SMILES: CC1(S(=O)(=O)NC(=O)[C@@]23C[C@H]2/C=C\CCCCC[C@H](NC(=O)OC2(C4CC4)CC2)C(=O)N2C[C@@]4(CCc5c(c(C6CC6)nc6c(F)cccc56)O4)C[C@H]2C(=O)N3)CC1 [Example 191, 1,1′-bi(cyclopropyl)-1-yl [(2R,6S,12Z,13aS,14aR,16aS)-5′-cyclopropyl-7′-fluoro-14a-{[(1-methylcyclopropyl)sulfonyl]carbamoyl}-5,16-dioxo-1,1′,2′,5,6,7,8,9,10,11,13a,14,14a,15,16,16a-hexadecahydrospiro[cyclopropa[e]pyrrolo[1,2-a][1,4]diazacyclopentadecine-2,3′-pyrano[2,3-c]quinolin]-6-yl]carbamate]
- IC50 [1, 2]: 0.012 nM
- EC50 (HCV genotype 1b replicon; [3]): 3590 pM

SMILES: CCc1ccc2nc(C)c3c(c2c1)C(F)C[C@]1(C[C@H]2C(=O)N[C@]4(C(=O)NS(=O)(=O)C5(C)CC5)C[C@H]4/C=C\CCCCC[C@H](NC(=O)OC(C)(C)C)C(=O)N2C1)O3 (single isomer, unassigned) [Example 316]
- IC50 [1, 2]: 0.008 nM
- EC50 (HCV genotype 1b replicon; genotype 1b replicon): 2630 pM

SMILES: Cc1nc2ccccc2c2c1O[C@]1(CC2)C[C@H]2C(=O)N[C@]3(C(=O)NS(=O)(=O)C4(C)CC4)C[C@H]3/C=C\CCCCC[C@H](NC(=O)NCc3ccccc3)C(=O)N2C1 [Example 284, (2R,6S,12Z,13aS,14aR,16aS)-6-[(benzylcarbamoyl)amino]-5′-methyl-N-[(1-methylcyclopropyl)sulfonyl]-5,16-dioxo-1,1′,2′,6,7,8,9,10,11,13a,14,15,16,16a-tetradecahydrospiro[cyclopropa[e]pyrrolo[1,2-a][1,4]diazacyclopentadecine-2,3′-pyrano[2,3-c]quinoline]-14a(5H)-carboxamide]
- IC50 [1, 6]: 0.038 nM
- EC50 (HCV genotype 1b replicon; [7]): 58700 pM

SMILES: COc1ccc2nc(C(F)(F)F)c3c(c2c1)CC[C@]1(C[C@H]2C(=O)N[C@]4(C(=O)NS(=O)(=O)C5(C)CC5)C[C@H]4/C=C\CCCCC[C@H](NC(=O)OC4CCC4)C(=O)N2C1)O3 [Example 450, cyclobutyl [(2R,6S,12Z,13aS,14aR,16aS)-9′-methoxy-14a-{[(1-methylcyclopropyl)sulfonyl]carbamoyl}-5,16-dioxo-5′-(trifluoromethyl)-1,1′,2′,5,6,7,8,9,10,11,13a,14,14a,15,16,16a-hexadecahydrospiro[cyclopropa[e]pyrrolo[1,2-a][1,4]diazacyclopentadecine-2,3′-pyrano[2,3-c]quinolin]-6-yl]carbamate]
- IC50 [1, 4]: 0.019 nM
- EC50 (HCV genotype 1b replicon; [5]): 1690 pM

SMILES: CC(C)COC(=O)N[C@H]1CCCCC/C=C\[C@@H]2C[C@@]2(C(=O)NS(=O)(=O)C2(C)CC2)NC(=O)[C@@H]2C[C@]3(CCc4c(cnc5ccccc45)O3)CN2C1=O [Example 110, 2-methylpropyl [(2R,6S,12Z,13aS,14aR,16aS)-14a-{[(1-methylcyclopropyl)sulfonyl]carbamoyl}-5,16-dioxo-1,1′,2′,5,6,7,8,9,10,11,13a,14,14a,15,16,16a-hexadecahydrospiro[cyclopropa[e]pyrrolo[1,2-a][1,4]diazacyclopentadecine-2,3′-pyrano[2,3-c]quinolin]-6-yl]carbamate]
- IC50 [1, 2]: 0.806 nM
- EC50 (HCV genotype 1b replicon; [3]): 47700 pM

SMILES: COc1ccc2nc(C)c3c(c2c1)[C@H](F)C[C@]1(C[C@H]2C(=O)N[C@]4(C(=O)NS(=O)(=O)C5(C)CC5)C[C@H]4/C=C\CCCCC[C@H](NC(=O)OCC(C)C)C(=O)N2C1)O3 [Example 372, 2-methylpropyl [(1′R,2S,6S,12Z,13aS,14aR,16aS)-1′-fluoro-9′-methoxy-5′-methyl-14a-{[(1-methylcyclopropyl)sulfonyl]carbamoyl}-5,16-dioxo-1,1′,2′,5,6,7,8,9,10,11,13a,14,14a,15,16,16a-hexadecahydrospiro[cyclopropa[e]pyrrolo[1,2-a][1,4]diazacyclopentadecine-2,3′-pyrano[2,3-c]quinolin]-6-yl]carbamate]
- IC50 ([1]; IC50 [gt-1b], NS3/4A protease TRF assay, genotype 1b enzyme 0.2 nM, K+ salt): 0.01 nM
- EC50 (HCV genotype 1b replicon; Hepatitis C virus, HCV replicon, genotype 1b, K+ salt): 2120 pM

SMILES: COc1ccc2c3c(c(C4CC4)nc2c1)O[C@]1(CC3)C[C@H]2C(=O)N[C@]3(C(=O)NS(=O)(=O)C4(C)CC4)C[C@H]3/C=C\CCCCC[C@H](NC(=O)OC3CCOC3)C(=O)N2C1 (stereo partly drawn) [Example 278, tetrahydrofuran-3-yl [(2R,6S,12Z,13aS,14aR,16aS)-5′-cyclopropyl-8′-methoxy-14a-{[(1-methylcyclopropyl)sulfonyl]carbamoyl}-5,16-dioxo-1,1′,2′,5,6,7,8,9,10,11,13a,14,14a,15,16,16a-hexadecahydrospiro[cyclopropa[e]pyrrolo[1,2-a][1,4]diazacyclopentadecine-2,3′-pyrano[2,3-c]quinolin]-6-yl]carbamate]
- IC50 [1, 6]: 0.027 nM
- EC50 (HCV genotype 1b replicon; [7]): 12400 pM

SMILES: CCCOC(=O)N[C@H]1CCCCC/C=C\[C@@H]2C[C@@]2(C(=O)NS(=O)(=O)C2(C)CC2)NC(=O)[C@@H]2C[C@]3(CCc4c(c(C5CC5)nc5cc(OC)ccc45)O3)CN2C1=O [Example 271, propyl [(2R,6S,12Z,13aS,14aR,16aS)-5′-cyclopropyl-8′-methoxy-14a-{[(1-methylcyclopropyl)sulfonyl]carbamoyl}-5,16-dioxo-1,1′,2′,5,6,7,8,9,10,11,13a,14,14a,15,16,16a-hexadecahydrospiro[cyclopropa[e]pyrrolo[1,2-a][1,4]diazacyclopentadecine-2,3′-pyrano[2,3-c]quinolin]-6-yl]carbamate]
- IC50 [1, 6]: 0.031 nM
- EC50 (HCV genotype 1b replicon; [7]): 5900 pM
